In ChEMBL document CHEMBL4813917, “2-((1-Phenyl-1H-1,2,3-triazol-4-yl)methyl)-2-azabicyclo[3.2.1]octan-3-one derivatives: Simplification and modification of aconitine scaffold for the discovery of novel anticancer agents” (Eur J Med Chem, 2021):
The source made the active and inactive calls. The rule behind the calls is not given here.

Legend:
[1] = test system: PANC-1; assay: Antiproliferative activity against human PANC-1 cells assessed as inhibition of cell proliferation measured after 24 hrs by MTT assay; type: functional, cell-based; conditions: PANC-1, 24 h
[2] = Cytotoxicity against human GES1 cells assessed as reduction in cell viability measured after 24 hrs by MTT assay; type: cell-based
[3] = biological target: Heat shock protein HSP 90-alpha (Homo sapiens, UniProt P07900); assay: Inhibition of recombinant human N terminal his-tagged HSP90 alpha (1 to 732 residues) expressed in Escherichia coli measured after 60 mins by Flourescence polarization assay
[4] = test system: A549; assay: Antiproliferative activity against human A549 cells assessed as inhibition of cell proliferation measured after 24 hrs by MTT assay; type: functional, cell-based; conditions: A549, 24 h
[5] = test system: OVCAR-3; assay: Antiproliferative activity against human OVCAR-3 cells assessed as inhibition of cell proliferation measured after 24 hrs by MTT assay; type: functional, cell-based; conditions: OVCAR-3, 24 h
[6] = test system: HepG2; assay: Antiproliferative activity against human HepG2 cells assessed as inhibition of cell proliferation measured after 24 hrs by MTT assay; type: functional, cell-based; conditions: HepG2, 24 h
[7] = test system: LoVo; assay: Antiproliferative activity against human LoVo cells assessed as inhibition of cell proliferation measured after 24 hrs by MTT assay; type: functional, cell-based
[8] = test system: SGC-7901; assay: Antiproliferative activity against human SGC-7901 cells assessed as inhibition of cell proliferation measured after 24 hrs by MTT assay; type: functional, cell-based; conditions: SGC-7901, 24 h
[9] = Cytotoxicity against human MRC5 cells assessed as reduction in cell viability measured after 24 hrs by MTT assay; type: cell-based
[10] = Cytotoxicity against human IOSE80 cells assessed as reduction in cell viability measured after 24 hrs by MTT assay; type: cell-based
[11] = Cytotoxicity against human L02 cells assessed as reduction in cell viability measured after 24 hrs by MTT assay; type: cell-based
[12] = Cytotoxicity against human NCM460 cells assessed as reduction in cell viability measured after 24 hrs by MTT assay; type: cell-based
[13] = Cytotoxicity against human HPDE6c7 cells assessed as reduction in cell viability measured after 24 hrs by MTT assay; type: functional
[14] = test system: SW-620; assay: Antitumour activity against human SW-620 cells xenografted in Balb/c mouse assessed as inhibition of tumour growth at 5 mg/kg, ip measured after 21 days; type: functional; conditions: SW-620, ip, 504 h, time 21 day, read-out: TGI
[15] = test system: SW-620; assay: Antitumour activity against human SW-620 cells xenografted in Balb/c mouse assessed as decrease in Ki67 expression in tumour at 5 mg/kg, ip measured after 21 days immunochemical staining method; type: functional, organism-based; conditions: time 21.0 day

IC50 [1] [nM] | IC50 [3] [nM] | IC50 [4] [nM] | IC50 [5] [nM] | IC50 [6] [nM] | IC50 [7] [nM] | IC50 [8] [nM] | SMILES | CC50 at 24 h [2] [nM] | CC50 at 24 h [9] [nM] | CC50 at 24 h [10] [nM] | CC50 at 24 h [11] [nM] | CC50 at 24 h [12] [nM] | CC50 [13] [nM] | inhibition in vivo at 5 mg/kg [14] [%] | Activity [15]
240 | 7.99 | 100 | 110 | 180 | 140 | 260 | CC1(C)[C@H]2CC[C@]1(C)N(Cc1cn(-c3ccccc3C#N)nn1)C(=O)C2 | 9450 | 23300 | 13800 | 46100 | 37500 | 16000 | – | –
250 | 21.8 | 140 | 380 | 50 | 90 | 500 | CC1(C)[C@H]2CC[C@]1(C)N(Cc1cn(-c3ccc(C#N)cc3)nn1)C(=O)C2 | 11200 | 10800 | 5520 | 15700 | 8140 | > 100000 | – | –
270 | – | 400 | 40 | 480 | 50 | 390 | Cc1ccc(-n2cc(CN3C(=O)C[C@@H]4CC[C@@]3(C)C4(C)C)nn2)cc1 | – | – | – | – | – | – | – | –
260 | – | 440 | 230 | 40 | 320 | 250 | CC1(C)[C@H]2CC[C@]1(C)N(Cc1cn(-c3cccc(C#N)c3)nn1)C(=O)C2 | – | – | – | – | – | – | – | –
230 | – | 230 | 90 | 120 | 540 | 410 | CC1(C)[C@H]2CC[C@]1(C)N(Cc1cn(-c3ccccc3O)nn1)C(=O)C2 | – | – | – | – | – | – | – | –
270 | 3.28 | 70 | 40 | 60 | 190 | 220 | CC1(C)[C@H]2CC[C@]1(C)N(Cc1cn(-c3ccccc3Cl)nn1)C(=O)C2 | 5370 | 4130 | 13400 | 20100 | 10800 | 3940 | – | –
250 | – | 90 | 150 | 150 | 80 | 350 | Cc1ccccc1-n1cc(CN2C(=O)C[C@@H]3CC[C@@]2(C)C3(C)C)nn1 | – | – | – | – | – | – | – | –
260 | 7.38 | 60 | 50 | 60 | 70 | 510 | CC1(C)[C@H]2CC[C@]1(C)N(Cc1cn(-c3cccc(Cl)c3)nn1)C(=O)C2 | 69800 | 8840 | 13500 | 8510 | 8410 | 13000 | – | –
280 | – | 180 | 370 | 70 | 410 | 270 | CC1(C)[C@H]2CC[C@]1(C)N(Cc1cn(-c3cccc(O)c3)nn1)C(=O)C2 | – | – | – | – | – | – | – | –
240 | – | 50 | 160 | 300 | 50 | 410 | Cc1cccc(-n2cc(CN3C(=O)C[C@@H]4CC[C@@]3(C)C4(C)C)nn2)c1 | – | – | – | – | – | – | – | –
860 | – | 240 | 280 | 70 | 80 | 590 | COc1cccc(-n2cc(CN3C(=O)C[C@@H]4CC[C@@]3(C)C4(C)C)nn2)c1 | – | – | – | – | – | – | – | –
110 | – | 230 | 200 | 90 | 40 | 500 | CC1(C)[C@H]2CC[C@]1(C)N(Cc1cn(-c3ccc(F)cc3)nn1)C(=O)C2 | – | – | – | – | – | – | – | –
120 | – | 350 | 140 | 110 | 70 | 280 | COc1ccccc1-n1cc(CN2C(=O)C[C@@H]3CC[C@@]2(C)C3(C)C)nn1 | – | – | – | – | – | – | – | –
220 | – | 180 | 430 | 80 | 90 | 530 | CC1(C)[C@H]2CC[C@]1(C)N(Cc1cn(-c3cccc(F)c3)nn1)C(=O)C2 | – | – | – | – | – | – | – | –
100 | – | 140 | 410 | 80 | 410 | 330 | CC1(C)[C@H]2CC[C@]1(C)N(Cc1cn(-c3ccc(O)cc3)nn1)C(=O)C2 | – | – | – | – | – | – | – | –
150 | 2.68 | 240 | 300 | 60 | 40 | 300 | CC1(C)[C@H]2CC[C@]1(C)N(Cc1cn(-c3ccccc3F)nn1)C(=O)C2 | 5160 | 15100 | 19200 | 13300 | 5260 | 26200 | – | –
160 | 34 | 70 | 50 | 90 | 50 | 240 | CC1(C)[C@H]2CC[C@]1(C)N(Cc1cn(-c3ccccc3)nn1)C(=O)C2 | 6690 | 9730 | 23400 | 6230 | 19600 | > 100000 | – | –
280 | – | 130 | 140 | 150 | 60 | 500 | CC1(C)[C@H]2CC[C@]1(C)N(Cc1cn(-c3ccccc3Br)nn1)C(=O)C2 | – | – | – | – | – | – | – | –
3210 | – | > 10000 | 480 | 330 | 260 | > 10000 | C=CCNC1=C2C[C@@H](C)C[C@H](OC)[C@H](O)[C@@H](C)/C=C(\C)[C@H](OC(N)=O)[C@@H](OC)/C=C\C=C(/C)C(=O)NC(=CC1=O)C2=O [TANESPIMYCIN] | 7940 | 14200 | 21500 | 11600 | 14200 | 19500 | 29.6 | Active
200 | – | 80 | 140 | 110 | 60 | 450 | CC1(C)[C@H]2CC[C@]1(C)N(Cc1cn(-c3ccc(Br)cc3)nn1)C(=O)C2 | – | – | – | – | – | – | – | –
440 | – | 70 | 160 | 90 | 160 | 410 | CC1(C)[C@H]2CC[C@]1(C)N(Cc1cn(-c3ccc(Cl)cc3)nn1)C(=O)C2 | – | – | – | – | – | – | – | –
330 | – | 50 | 250 | 100 | 70 | 480 | COc1ccc(-n2cc(CN3C(=O)C[C@@H]4CC[C@@]3(C)C4(C)C)nn2)cc1 | – | – | – | – | – | – | – | –
